Data from patent publication US20120022000A1, “USE OF A PEPTIDE IN THE TREATMENT OR PREVENTION OF METASTASIS” (UNIVERSITE DE LAUSANNE, priority 2009, published 2012).
Marks after values point to notes of the source that are not given here.

Legend:
[1] = tested on: U2OS cells; experiment: Immuno-cytochemistry of actin and focal adhesions (phospho-FAK); type: cell-based; details: 13 μM over-night (FIG. 6)
Experimental: FIG. 6: Actin and focal adhesion changes in TAT-RasGAP317-326-treated cells. 100,000 U2OS cells were cultured on coverslips for 24 hours and then treated with 13 μM TAT-RasGAP317-326, 13 μM TAT or left untreated (control) over-night. The cells were then fixed with 2% PFA, and peinieabilized with PBS Triton-X100 0.2%. The nuclei were stained with Hoechst 33342 and actin with Alexa Fluor 488 phalloidin. Focal adhesions were stained with an anti-phospho Tyr397 FAK. Representative images are shown.
100,000 U2OS cells were grown on coverslips overnight, and then treated as described in the figures. The cells were then fixed and the nuclei were stained in PBS containing 2% paraformaldehyde (weight/vol) (Acros Organics, catalog no: 30525-89-4) and 10 μg/ml Hoechst 33342 (Molecular Probe) for 15 minutes. The following steps were performed at room temperature in the absence of light. The cells were washed twice in PBS, permeabilized 10 minutes in PBS, 0.2% Triton X-100, washed twice in PBS, neutralized 15 minutes in DMEM, 10% FBS, and washed twice in PBS. The coverslips were then incubated 20 minutes in PBS 1.65 μM Alexa Fluor 488 phalloidin (Invitrogen, A12379). After a rapid wash in PBS, they were incubated with a polyclonal rabbit anti-phospho-FAK (tyrosine 397) primary antibody (1:50 dilution in DMEM, 10% FBS; Cell Signaling, catalog no: 3283) for 1 hour. After a rapid wash in PBS, the coverslips were incubated 1 hour with a donkey CyTM-anti-rabbit secondary antibody (1:500 dilution in DMEM, 10% FBS; Jackson ImmunoResearch, no. 711-165-152). The slides were finally washed twice in PBS and mounted in Vectashield mounting medium (Vector laboratories Inc.). Images were taken with a Zeiss Axioplan 2 imaging microscope.

[2] = tested on: U2OS cells; experiment: Adhesion assay (trypsinization assay) with peptides; type: cell-based; details: for cell adherence (resistance to trypsin): U2OS cells, 8 hours (FIG. 4A)
Experimental: (a) U2OS cells were cultured until confluency and treated during 0 h, 1 h, 3 h, 8 h and 14 h with 13 μM TAT, 13 μM TAT-RasGAP317-326 or without treatment. The cells were then trypsinized during 5 minutes (or not trypsinized), washed with PBS and stained with GIEMSA. Four pictures were taken per plate using a Zeiss Axioplan 2 microscope equipped with a 10× objective and the number of cells per surface area was determined. Representative images are shown. The graph represents the number of cells per mm^2 (mean±95% CI of 3 independent experiments). Scale bar=100 μm. (b) Trypsinization assay on cancerous cell lines (U2OS, HeLa, 4T1, HCT116, SAOS) and non-cancerous cell lines (HEK293T and HaCaT). Cells were treated and analyzed as in panel (a). Values for control and TAT treatments are shown literally as they were too low to be seen on the graphs. (c) Reversibility of the TAT-RasGAP317-326 induced adhesion. Confluent U2OS cells were treated during 24 h with 13 μM TAT, 13 μM TAT-RasGAP317-326 or not treated. The cells were then washed and incubated in culture medium without peptides for the indicated periods of time. Cells were analyzed as in panel (a).
(§1) (a) RasGAP317-326 without cell-permeation sequences is not able to render cells resistant to trypsin. 300,000 U2OS cells were cultured overnight in 3.5 cm plates and then treated during 8 hours with the indicated peptides (the concentration of each peptide was 13 μM). The cells were then subjected to a trypsinization assay. (b) 2×10^6 HEK293T cells were cultured overnight in 10 cm plates and transfected with empty vector (pcDNA3) or vectors encoding HA-tagged versions of fragment N2 or the 317-326 sequence of RasGAP. One day later, the cells were subjected to a trypsinization test. Results in (a) and (b) correspond to the number of cells per mm2 (mean±95% CI of 3 independent experiments). Some values are shown literally as they were too low to be seen on the graphs.
5×10^5 cells were grown overnight and then incubated with peptides or transfected (see the figures for the specific conditions used). The treated cells were washed with phosphate buffered saline (PBS) and then incubated with trypsin-EDTA solution (Sigma; catalog no: T3924; […]) during 5 minutes. The plates were gently hand-rocked 2 and 4 minute after trypsin addition. Detached cells were removed with a PBS wash and the remaining attached cells were dried, incubated in ethanol during 10 minutes, dried again, and finally stained with GIEMSA (Invitrogen) for 45 minutes. Four and six phase contrast pictures were taken (Zeiss Axioplan, 10× objective) for 3.5 cm-plates and 10 cm-plates, respectively. The number of cells per mm2 was then determined.

[3] = tested on: U2OS, HeLa, HCT116 and HaCaT; experiment: Wound-healing experiment; type: cell-based; details: 13 μM peptide, HCT116, HaCaT (FIG. 2)
Experimental: Cells were cultured until confluency and a wound in the cell layer was done with a yellow tip. The cells were then left untreated or incubated 24 hours with 13 μM of TAT or TAT-RasGAP317-326 peptides. Pictures were taken just after wounding (0 hour) and at the indicated times. Results correspond to the width of the wound (mean±95% CI of 4 independent experiments). Asterisks denote significant differences between the control and the other conditions at a given time point (t-test after Bonferroni correction). Bar=100 μm. Cells were grown until confluency and a wound in the cell layer was done with a yellow tip. The cells were washed once with PBS to remove debris and then left untreated or incubated 24 hours and 48 hours with 13 μM of TAT or TAT-RasGAP317-326 peptides (in DMEM+10% FBS). Pictures were taken just after wounding (0 h) and at the indicated times. The wound widths were measured as described earlier (Bulat et al., 2009).

[4] = tested on: U2OS cells; experiment: Proliferation assay; type: cell-based; details: 13 μM (FIG. 3)
Experimental: 30,000 U2OS cells were seeded in 3.5 cm-plates. The cell number in the plates were then determined 24 and 48 hours later as described in FIG. 1, panel (a). The graph represents the number of cells per mm2 (mean±95% CI of 3 independent experiments). No significant difference between the growth curves could be detected (repeated measures ANOVA). 30,000 U2OS cells were seeded in 3.5 cm plates and cultured overnight. The cells were either treated with 13 μM TAT, 13 μM TAT-RasGAP317-326 or left untreated. Pictures were taken after 0 h, 24 h and 72 hours and cells were counted. The number of cells was then adjusted per mm2.

[5] = tested on: 4T1-luc2 cells; experiment: In vivo metastases model (orthotopic mammary fatpad 4T1-luc2 tumor); design: species or system nude mice
Experimental: 100,000 4T1-luc2 cells were injected orthotopically into the mammary fatpad of nude mice. Four groups of eight nude mice were then treated with or without 0.16 mg TAT-RasGAP317-326 per kg of mouse on the first, third and fifth day of the week during 28 days. The tumor volumes were measured with a caliper at the indicated time points and were calculated according to the formula described in the “MATERIAL AND METHODS” section. A repeated measure ANOVA was performed and no differences were found between the two groups.
Nude mice were injected into the mammary fatpads with 100,000 murine mammary cancer 4T1-luc2 cells that constitutively express the firefly luciferase. For the injection, the mouse skin was incised in the pelvic area to reach the fatpads, and the wounds were closed after injection with surgery hooks. The cells were injected in 100 μl Matrigel (BD Biosciences, 20% in PBS). Tumor volumes were quantified as follow: The tumor width and length were measured with a caliper and the tumor volume was calculated according to the formula tumor volume [mm3]=(12*L)*π/6, where 1 is the smallest measure between the width and the length (in mm), and L the longest (in mm) In order to quantify metastases, the mice were injected i.p. with 200 μl D-Luciferin Firefly (15 mg/ml in PBS) in PBS, Biosynth, No. L-8220) and luminescence was measured 10 minutes afterwards with an IVIS Lumina 2 apparatus (Xenogen). Metastases were assessed at the indicated time points in vivo and at the last day (28 days after tumor injection) ex vivo for the following organs: lung, liver and axillary and brachial lymph nodes. For the ex vivo measurements, the mice were injected with luciferin as described above, and sacrificed 10 minutes later to excise organs. The light emitted by the organs was measured in a Luciferin bath (150 μg/ml D-Luciferin Firefly in 2 ml PBS per organ). Luminescence is presented as the number of photons emitted per second (p/s).
28 days after cancer cells injection, the same mice than those in FIG. 5 were subjected to ex vivo metastases luminescence measurements. The lung, liver, axillary and brachial lymph node (LN) metastases were quantified by luminescence after luciferine i.p. injection. Organs emitting light were considered as bearing metastases. The asterisk denotes a significant difference against the control treatment (0 mg/kg TAT-RasGAP317-326) (p=0.0238 after an Fisher's Exact Test).

[6] = target: T1, trypsin (Sus scrofa, UniProt P00761); experiment: Trypsin pre-incubated with peptide, cell detachment; details: trypsin pre-incubated one hour with peptide; data not shown
T1 construct: purchased Sigma T3924
T1 sequence (P00761 9-231): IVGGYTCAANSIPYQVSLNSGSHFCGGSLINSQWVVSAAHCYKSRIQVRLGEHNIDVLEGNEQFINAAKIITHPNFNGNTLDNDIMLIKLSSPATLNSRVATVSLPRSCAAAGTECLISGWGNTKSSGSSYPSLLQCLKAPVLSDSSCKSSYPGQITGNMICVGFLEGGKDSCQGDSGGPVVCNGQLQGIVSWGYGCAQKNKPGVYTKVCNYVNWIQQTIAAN
Text: TAT-RasGAP317-326 could increase adherence and block migration by acting in the cellular environment or at the surface of cells. Alternatively, these effects could be induced only once the peptide has entered cells. The following evidence favors the second possibility.

[7] = peptide by itself; Michod et al., 2004; 2009; cited from earlier work
[8] = tested on: HEK293T cells; experiment: Adhesion assay (trypsinization test) after transfection; type: cell-based; details: HEK293T cells transfected with HA-tagged constructs, one day (FIG. 4B)
Experimental: as §1
2×10^6 HEK293T cells were cultured overnight in 10 cm-culture plates and transfected with 18 μg of the plasmid of interest and 2 μg of pEGFP-C1 (a green fluorescent protein-encoding plasmid from Clontech) using the calcium-phosphate method (Jordan et al., 1996). Briefly, plasmids were diluted in 450 μl water and mixed with 50 μl CaCl2 2.5M during 30 minutes. […]
5×10^5 cells were grown overnight and then incubated with peptides or transfected (see the figures for the specific conditions used). […] The number of cells per mm2 was then determined.

[9] = 0.160 mg/kg, 28 days after cell injection, ex vivo luminescence

## GRKKRRQRRR [TAT, cell-permeable carrier peptide used as control, reference compound]
[1]
  actin and focal adhesion localization: did not exhibit any difference compared to untreated cells

## GRKKRRQRRRGGWMWVTNLRTD [TAT-RasGAP317-326, RasGAP-derived peptide conjugated to HIV-TAT48-57 through two glycine residues]
[2]; 1 μg/ml actinomycin D or 30 μg/ml cycloheximide, data not shown
  ability to increase cell adherence when transcription or translation is blocked: None of the drugs affected the ability
[2]; 13 μM peptide, trypsinization 5 minutes, U2OS and other cell lines (FIG. 1)
  cell adhesion: induces cell adhesion
[3]
  ability of the cells to fill wounds (cell migration): blocked the ability of the cells to fill wounds
[4]
  cell population growth: does not modulate cell population growth
[5]; 0.16 mg per kg on first, third and fifth day of the week during 28 days, nude mice (FIG. 5)
  primary tumor growth: does not affect primary tumor growth
[5]; [9]
  mice with metastases in the indicated organs vs total number of mice: Liver: 3/8
  mice with metastases in the indicated organs vs total number of mice: Lung: 2/8*
[5]; 0.160 mg/kg, 28 days after cell injection, ex vivo luminescence, axillary and brachial lymph nodes
  mice with metastases in the indicated organs vs total number of mice: LN: 3/8
[5]; 28 days, liver, lymph nodes
  formation of metastases in other organs: apparently no effect
[5]; 28 days, p=0.024, Fisher's Exact Test
  lung metastases: significant decrease in lung metastases
[1]
  actin and focal adhesion localization: major changes in actin and focal adhesion localization
  cortical actin stress fibers: strong increase
  location of focal adhesions: mainly found at the cell's periphery
  ventral stress fibers: almost completely disappeared
[6]
  trypsin inhibitory effect (ability of trypsin to detach cells): did not decrease the ability of trypsin to detach cells
[7]
  cell survival: does not, by itself, affect cell survival

## RRRRRRRRRGGWMWVTNLRTD [R9—RasGAP317-326, RasGAP317-326 conjugated to a 9 arginine peptide]
[2]; 13 μM peptide
  cell adherence (resistance to trypsin): functions as a cell adherence promoting agent

## WMWVTNLRTD (listed as Homo sapiens) [RasGAP317-326]
[2]; 13 μM peptide
  cell adherence (resistance to trypsin): unable to increase cell adherence

B1: RasGAP Fragment N2: HA-tagged human RasGAP amino acid 158-455 sequence, expressed from plasmid HA-N2.dn3 (protein, UniProt P20936 158-455, looked up, fragment)
chain: SLDGPEYEEEEVAIPLTAPPTNQWYHGKLDRTIAEERLRQAGKSGSYLIRESDRRPGSFVLSFLSQMNVVNHFRIIAMCGDYYIGGRRFSSLSDLIGYYSHVSCLLKGEKLLYPVAPPEPVEDRRRVRAILPYTKVPDTDEISFLKGDMFIVHNELEDGWMWVTNLRTDEQGLIVEDLVEEVGREEDPHEGKIWFHGKISKQEAYNLLMTVGQVCSFLVRPSDNTPGDYSLYFRTNENIQRFKICPTPNNQFMMGGRYYNSIGDIIDHYRKEQIVEGYYLKEPVPMQDQEQVLNDTVD
modifications: HA tag
[8]
  cell adherence after transfection: Increases Cell Adherence
